Data from ChEMBL document CHEMBL6096710, “Re-evaluation of Cyclic Peptide Binding to Neurotensin Receptor 1 by Shifting the Peptide Register during Synthesis” (ACS Med Chem Lett, 2025).
Square brackets hold non-standard residues; d marks the D form. Peptide text beside a SMILES is read from it. NMeR = CN[C@@H](CCCNC(=N)N)C(=O)O; Tle = CC(C)(C)[C@H](N)C(=O)O

Legend:
[1] = Displacement of FAM-NT8-13 from rat NTSR1 stably expressed in HEK293F cells incubated for 1 hr under dark condition by mCherry fluorophore based competition binding assay; format: cell-based
[2] = molecular target: Neurotensin receptor type 1 (Homo sapiens, UniProt P30989); experiment: Inhibition of NTSR1 (unknown origin)
Chain of Neurotensin receptor type 1 (P30989 whole entry): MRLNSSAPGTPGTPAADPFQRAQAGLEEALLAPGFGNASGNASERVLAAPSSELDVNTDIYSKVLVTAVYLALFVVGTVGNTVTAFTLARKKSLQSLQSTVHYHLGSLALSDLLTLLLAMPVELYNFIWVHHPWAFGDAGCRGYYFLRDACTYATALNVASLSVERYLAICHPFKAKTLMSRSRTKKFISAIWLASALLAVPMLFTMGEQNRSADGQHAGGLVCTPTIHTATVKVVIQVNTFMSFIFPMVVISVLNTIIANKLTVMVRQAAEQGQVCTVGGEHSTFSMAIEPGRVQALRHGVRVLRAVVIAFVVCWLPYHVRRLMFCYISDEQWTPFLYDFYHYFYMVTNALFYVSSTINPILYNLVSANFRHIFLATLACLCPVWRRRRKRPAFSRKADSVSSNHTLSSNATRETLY

SMILES	Ki [1] [nM]	pKi [1]	Ki [2] [nM]
CC(C)C[C@H](NC(=O)[C@@H](NC(=O)[C@H](Cc1ccc(O)cc1)NC(=O)[C@@H]1CCCN1C(=O)[C@H](CCCCN)NC(=O)[C@@H](N)CCCNC(=N)N)C(C)(C)C)C(=O)O (H-RKPY[Tle]L-OH)	47.9	7.32	
CN[C@@H](CCCNC(=N)N)C(=O)N[C@@H](CCCCN)C(=O)N1CCC[C@H]1C(=O)N[C@@H](Cc1c[nH]c2ccccc12)C(=O)N[C@H](C(=O)N[C@@H](CC(C)C)C(=O)O)C(C)(C)C (H-[NMeR]KPW[Tle]L-OH)			5.37
CC(C)C[C@H](NC(=O)[C@@H](N)C(C)(C)C)C(=O)N[C@@H](CCCNC(=N)N)C(=O)N[C@@H](CCCCN)C(=O)N1CCC[C@H]1C(=O)N[C@@H](Cc1ccc(O)cc1)C(=O)O (H-[Tle]LRKPY-OH)		< 4	
CC(C)C[C@@H]1NC(=O)[C@H](C(C)(C)C)NC(=O)[C@H](Cc2ccc(O)cc2)NC(=O)[C@@H]2CCCN2C(=O)[C@H](CCCCN)NC(=O)[C@H](CCCNC(=N)N)NC1=O (cyclo(KPY[Tle]LR))	1480	< 4	1070
